Among the data in patent US20180353462A1, “[…] AGENTS […] FLAVONOID DERIVATIVES TARGETING KINASES, SIRTUINS AND ONCOGENIC AGENTS FOR THE TREATMENT OF CANCERS” (priority 2015, published 2018) are IC50 values, retold here.

SMILES strings stand for the structures. Where only a bound is given, the exact number is not on record here.

Holding throughout (details): Table 1 kinase panel
For assay [1], the target named is T1, EPHB6 (Homo sapiens, UniProt O15197).
T1 construct: made in house
T1 sequence (O15197 32-1021): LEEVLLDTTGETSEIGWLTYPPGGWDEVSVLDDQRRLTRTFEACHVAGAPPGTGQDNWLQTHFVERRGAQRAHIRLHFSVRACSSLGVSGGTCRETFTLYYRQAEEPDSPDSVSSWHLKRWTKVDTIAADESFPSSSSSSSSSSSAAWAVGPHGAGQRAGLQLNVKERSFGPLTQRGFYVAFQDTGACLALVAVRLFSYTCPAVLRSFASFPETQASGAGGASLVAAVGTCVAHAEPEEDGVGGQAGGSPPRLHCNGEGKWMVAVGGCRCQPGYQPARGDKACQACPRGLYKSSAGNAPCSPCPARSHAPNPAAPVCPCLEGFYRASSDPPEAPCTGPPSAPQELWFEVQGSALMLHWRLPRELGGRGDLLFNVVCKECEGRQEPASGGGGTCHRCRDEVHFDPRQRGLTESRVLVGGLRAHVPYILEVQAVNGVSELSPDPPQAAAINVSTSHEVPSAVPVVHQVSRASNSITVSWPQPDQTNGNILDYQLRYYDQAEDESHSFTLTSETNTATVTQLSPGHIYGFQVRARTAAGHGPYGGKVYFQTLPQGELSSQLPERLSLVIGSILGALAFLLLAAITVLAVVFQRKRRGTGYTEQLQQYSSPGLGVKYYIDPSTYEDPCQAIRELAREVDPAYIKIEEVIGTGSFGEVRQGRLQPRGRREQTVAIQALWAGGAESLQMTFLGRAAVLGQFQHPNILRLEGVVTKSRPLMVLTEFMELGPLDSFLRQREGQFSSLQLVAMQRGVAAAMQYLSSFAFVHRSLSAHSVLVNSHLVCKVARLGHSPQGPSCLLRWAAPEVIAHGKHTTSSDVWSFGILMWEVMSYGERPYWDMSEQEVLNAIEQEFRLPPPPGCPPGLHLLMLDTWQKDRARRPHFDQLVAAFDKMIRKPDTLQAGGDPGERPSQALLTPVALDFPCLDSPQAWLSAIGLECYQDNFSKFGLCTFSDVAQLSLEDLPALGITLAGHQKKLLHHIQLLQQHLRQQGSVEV
Briefly: Kinase competition binding assay, EPHB6. How it is done:
(§1) Cannabis flavonoids and their analogs were subjected to kinase inhibition assay. The compounds were first screened at a single concentration of 10 μM in the primary assay. […]. To determine the kd or IC50 values, competition binding assays were established, authenticated and executed as described previously. Fabian et al., “A Small Molecule-Kinase Interaction Map For Clinical Kinase Inhibitors.”, Nat Biotechnol, 23(3):329-36, Epub (2005). See also, Karaman et al., “A Quantitative Analysis Of Kinase Inhibitor Selectivity”, Nat. Biotechnol. […] For most assays, kinases were fused to T7 phage strains (Fabian, supra) and for the other assays, kinases were produced in HEK-293 cells after which they were tagged with DNA for quantitative PCR detection. In general, full-length constructs were used for small, single domain kinases, and catalytic domain constructs for large multi-domain kinases. The binding assays utilized streptavidin-coated magnetic beads treated with biotinylated small molecule ligands for 30 minutes at room temperature which generated affinity resins for the kinase assays. The liganded beads were blocked with excess biotin and washed with blocking buffer (SeaBlock (Pierce), 1% BSA, 0.05% Tween 20, 1 mM DTT) to remove unbound ligand and to reduce non-specific phage binding. […] Test compounds were prepared as 40× stocks in 100% DMSO and diluted directly into the assay (Final DMSO concentration=2.5%). All reactions were performed in polypropylene 384-well plates in a final volume of 0.04 ml. […] The beads were then re-suspended in elution buffer (1×PBS, 0.05% Tween 20, 0.5 μM non-biotinylated affinity ligand) and incubated at room temperature with shaking for 30 minutes. The kinase concentration in the eluates was measured by quantitative PCR. An illustration of the kinase interaction process is presented below. Kd/IC50 values were determined using a standard dose response curve using the hill equation. Curves were fitted using a non-linear least square fit with the Levenberg-Marquardt algorithm.
(§2) The compound(s) were screened at 10 μM and results for primary screen binding interactions are reported as ‘% Ctrl’, where lower numbers indicate stronger hits in the matrix.

The target in assay [2] is T2, PIK3CA(1800L) (Homo sapiens, UniProt P42336, I800L).
T2 construct: T7 phage fusion (most assays) or DNA tag for qPCR (HEK-293-made kinases); made in house
Briefly: Kinase competition binding assay, PIK3CA(1800L). The protocol:
as §1, §2

For assay [3], the target named is T3, JAK3 (Homo sapiens, UniProt P52333).
T3 construct: made in house
T3 sequence (P52333 1-1124): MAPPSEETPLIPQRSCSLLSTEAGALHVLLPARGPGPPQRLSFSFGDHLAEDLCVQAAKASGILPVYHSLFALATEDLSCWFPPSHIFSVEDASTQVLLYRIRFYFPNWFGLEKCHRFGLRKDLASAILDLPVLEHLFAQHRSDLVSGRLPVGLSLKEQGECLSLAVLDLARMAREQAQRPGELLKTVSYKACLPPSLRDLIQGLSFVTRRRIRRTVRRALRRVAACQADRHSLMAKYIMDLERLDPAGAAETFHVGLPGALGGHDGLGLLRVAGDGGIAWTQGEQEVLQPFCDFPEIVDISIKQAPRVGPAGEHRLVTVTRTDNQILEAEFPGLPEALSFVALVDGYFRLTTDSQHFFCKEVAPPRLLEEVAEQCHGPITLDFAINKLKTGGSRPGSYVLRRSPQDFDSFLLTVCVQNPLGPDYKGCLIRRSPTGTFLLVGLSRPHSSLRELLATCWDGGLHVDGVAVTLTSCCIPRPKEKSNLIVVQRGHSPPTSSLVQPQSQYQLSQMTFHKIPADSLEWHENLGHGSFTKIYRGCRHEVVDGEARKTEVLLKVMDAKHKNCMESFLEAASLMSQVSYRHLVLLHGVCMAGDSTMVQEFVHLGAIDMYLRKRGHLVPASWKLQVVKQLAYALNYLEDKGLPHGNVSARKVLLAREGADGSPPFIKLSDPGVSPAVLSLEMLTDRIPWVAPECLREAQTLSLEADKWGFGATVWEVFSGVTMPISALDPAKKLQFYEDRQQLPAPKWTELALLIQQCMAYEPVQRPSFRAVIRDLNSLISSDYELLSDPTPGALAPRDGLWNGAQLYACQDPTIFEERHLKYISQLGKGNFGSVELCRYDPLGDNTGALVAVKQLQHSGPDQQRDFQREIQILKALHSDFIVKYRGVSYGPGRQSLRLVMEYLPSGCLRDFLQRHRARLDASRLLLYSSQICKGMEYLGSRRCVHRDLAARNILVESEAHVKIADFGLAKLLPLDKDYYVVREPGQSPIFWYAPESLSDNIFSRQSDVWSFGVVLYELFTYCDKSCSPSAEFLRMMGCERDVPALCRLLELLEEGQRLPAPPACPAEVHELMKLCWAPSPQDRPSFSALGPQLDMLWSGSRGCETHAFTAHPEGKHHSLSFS
Briefly: Kinase competition binding assay, JAK3. The protocol: as §1, §2

T2 sequence (P42336 whole entry I800L, the tested form may be a part): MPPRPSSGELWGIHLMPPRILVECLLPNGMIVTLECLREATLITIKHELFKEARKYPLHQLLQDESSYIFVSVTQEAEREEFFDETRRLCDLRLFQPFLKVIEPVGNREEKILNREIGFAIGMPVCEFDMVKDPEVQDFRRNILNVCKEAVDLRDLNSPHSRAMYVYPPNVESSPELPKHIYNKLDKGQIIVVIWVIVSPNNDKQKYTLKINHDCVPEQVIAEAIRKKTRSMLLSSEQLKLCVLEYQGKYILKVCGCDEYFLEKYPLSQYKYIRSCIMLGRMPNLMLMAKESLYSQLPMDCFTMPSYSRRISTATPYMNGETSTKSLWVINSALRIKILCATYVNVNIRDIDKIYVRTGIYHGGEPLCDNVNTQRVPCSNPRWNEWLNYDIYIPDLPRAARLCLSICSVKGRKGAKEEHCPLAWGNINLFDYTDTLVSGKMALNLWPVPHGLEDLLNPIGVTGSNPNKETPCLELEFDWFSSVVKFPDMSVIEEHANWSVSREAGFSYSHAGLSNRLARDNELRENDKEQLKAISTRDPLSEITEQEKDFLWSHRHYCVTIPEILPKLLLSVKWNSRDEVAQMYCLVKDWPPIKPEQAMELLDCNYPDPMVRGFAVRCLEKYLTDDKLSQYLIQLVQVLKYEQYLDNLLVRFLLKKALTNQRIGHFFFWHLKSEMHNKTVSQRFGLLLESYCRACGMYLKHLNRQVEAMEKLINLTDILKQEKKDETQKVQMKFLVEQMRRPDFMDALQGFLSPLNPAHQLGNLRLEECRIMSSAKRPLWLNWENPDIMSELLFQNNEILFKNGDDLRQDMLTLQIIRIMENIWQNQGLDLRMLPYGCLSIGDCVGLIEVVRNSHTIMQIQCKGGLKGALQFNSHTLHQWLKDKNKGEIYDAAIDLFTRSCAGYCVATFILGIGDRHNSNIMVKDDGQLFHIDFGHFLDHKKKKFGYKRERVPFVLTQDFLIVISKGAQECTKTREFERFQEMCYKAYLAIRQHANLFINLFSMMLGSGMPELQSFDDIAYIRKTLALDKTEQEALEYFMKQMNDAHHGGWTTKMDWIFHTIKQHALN

For the compound `COc1cc(-c2cc(=O)c3c(O)c(C/C=C(\C)CCC=C(C)C)c(O)cc3o2)ccc1O` [FBL-03A], the half-inhibitory concentration (IC50) in assay [1], in assay [2] and in assay [3] was > 20000 nM throughout.
Turning to `COc1cc(-c2cc(=O)c3c(O)c(CC=C(C)C)c(O)cc3o2)ccc1O` [FBL-03B], the half-maximal inhibitory concentration (IC50) in assay [1] and in assay [3] was > 1000 nM each time.
As for `COc1cc(-c2cc(=O)c3c(O)cc(O)c(C/C=C(\C)CCC=C(C)C)c3o2)ccc1O` [FBL-03C], the IC50 in assay [1] came out at 270 nM; in assay [2] it was 780 nM; in assay [3] it was 780 nM.
In the case of `COc1ccc(-c2cc(=O)c3c(O)c(C/C=C(\C)CCC=C(C)C)c(O)cc3o2)cc1OC` [FBL-03D], the IC50 in assay [1], in assay [2] and in assay [3] was > 30000 nM throughout.
As for `COc1cc(-c2cc(=O)c3c(O)cc(O)c(CC=C(C)C)c3o2)ccc1O` [FBL-03G], the results for the IC50 in assay [1], in assay [2] and in assay [3] were > 1000 nM, > 20000 nM and > 20000 nM, respectively.

One may read the IC50 as the concentration that gives 50% inhibition.
